Test results as given in PubChem BioAssay AID264 (DTP/NCI, 2004).
Values joined by “and” are separate entries in the source; they are usually repeats but may differ in a detail not shown here. Equal entries are not always repeated. Inconclusive results are not listed.

System: nude mice, LX-1 lung xenograft intrarenal, tumor weight T/C
Assay: NCI In Vivo Anticancer Drug Screen. Data for tumor model Human Lung LX-1 Xenograft (intrarenal inoculation) in NU/NU Swiss (nude) mice
Settings: endpoint: mean tumor weight change, higher = larger tumour
Outline: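 Activity was scored by measuring tumors in treated animals and in vehicle controls, then reporting the treated result as a fraction of the control result.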

[1] = dose: 100.0 mg/kg/injection, schedule: Q04DX003 (sc), vehicle: saline with Tween-80
[2] = dose: 300.0 mg/kg/injection, schedule: Q04DX003 (sc), vehicle: Klucel (hydroxypropylcellulose) (HPC)
[3] = dose: 600.0 mg/kg/injection, schedule: Q04DX003 (sc), vehicle: Klucel (hydroxypropylcellulose) (HPC)
[4] = dose: 1200.0 mg/kg/injection, schedule: Q04DX003 (sc), vehicle: Klucel (hydroxypropylcellulose) (HPC)
[5] = dose: 2400.0 mg/kg/injection, schedule: Q04DX003 (sc), vehicle: Klucel (hydroxypropylcellulose) (HPC)
[6] = dose: 50.0 mg/kg/injection, schedule: Q01DX010 (sc), vehicle: saline
[7] = dose: 100.0 mg/kg/injection, schedule: Q01DX010 (sc), vehicle: saline
[8] = dose: 300.0 mg/kg/injection, schedule: Q04DX003 (sc), vehicle: saline with Tween-80
[9] = dose: 600.0 mg/kg/injection, schedule: Q04DX003 (sc), vehicle: saline with Tween-80
[10] = dose: 1200.0 mg/kg/injection, schedule: Q04DX003 (sc), vehicle: saline with Tween-80
[11] = dose: 150.0 mg/kg/injection, schedule: Q04DX003 (sc), vehicle: saline with Tween-80

Compound: CSc1ccc2c(c1)C(N1CCN(C)CC1)Cc1ccccc1S2 (configuration not stated)
- T/C (dose: 25.0 mg/kg/injection, schedule: Q04DX003 (sc), vehicle: saline with Tween-80): 152 % of control
- T/C (dose: 50.0 mg/kg/injection, schedule: Q04DX003 (sc), vehicle: saline with Tween-80): 88 % of control
- T/C [1]: 171 % of control

Compound: O/N=C/c1ccccc1O.O/N=C/c1ccccc1O.[Cu]
- T/C [1]: 72 % of control
- T/C (dose: 200.0 mg/kg/injection, schedule: Q04DX003 (sc), vehicle: saline with Tween-80): 67 % of control and 72 % of control
- T/C (dose: 400.0 mg/kg/injection, schedule: Q04DX003 (sc), vehicle: saline with Tween-80): 93 % of control

Compound: CC[PH+](CC)CC[S-].CC[PH+](CC)CC[S-].[Au+].[Au+]
- T/C (dose: 40.0 mg/kg/injection, schedule: Q04DX003 (sc), vehicle: Klucel (hydroxypropylcellulose) (HPC)): 105 % of control
- T/C (dose: 160.0 mg/kg/injection, schedule: Q04DX003 (sc), vehicle: Klucel (hydroxypropylcellulose) (HPC)): 105 % of control
- T/C (dose: 320.0 mg/kg/injection, schedule: Q04DX003 (sc), vehicle: Klucel (hydroxypropylcellulose) (HPC)): 96 % of control

Compound: Nc1ncnc2c1ncn2C1C=C(CO)C(O)C1O (configuration not stated)
- T/C (dose: 3.75 mg/kg/injection, schedule: Q04DX003 (sc), vehicle: saline): 49 % of control
- T/C (dose: 7.5 mg/kg/injection, schedule: Q04DX003 (sc), vehicle: saline): 70 % of control
- T/C (dose: 15.0 mg/kg/injection, schedule: Q04DX003 (sc), vehicle: saline): 58 % of control

Compound: BrCC[Se]c1ccccc1
- T/C (dose: 50.0 mg/kg/injection, schedule: Q01DX010 (sc), vehicle: saline with Tween-80): 92 % of control
- T/C (dose: 100.0 mg/kg/injection, schedule: Q01DX010 (sc), vehicle: saline with Tween-80): 62 % of control
- T/C (dose: 200.0 mg/kg/injection, schedule: Q01DX010 (sc), vehicle: saline with Tween-80): 55 % of control

Compound: CCC(=O)O[C@H]1CC[C@H]2[C@@H]3CCC4=CC(=O)CC[C@]4(C)[C@H]3CC[C@]12C
- T/C [2]: 77 % of control
- T/C [3]: 59 % of control
- T/C [4]: 65 % of control
- T/C [5]: 69 % of control

Compound: c1ccc(CN2CCOC2)cc1
- T/C [6]: 81 % of control
- T/C [7]: 165 % of control

Compound: Cc1c2cc(Cl)c3ccccc3c2c[n+]2ccccc12
- T/C [8]: 66 % of control
- T/C [9]: 81 % of control
- T/C [10]: 70 % of control

Compound: Nc1nc(N)c2c(Cl)c(CNc3ccc(Cl)c(Cl)c3)ccc2n1
- T/C (dose: 25.0 mg/kg/injection, schedule: Q01DX010 (sc), vehicle: saline with Tween-80): 111 % of control

Compound: CCCCCC(=O)O[C@]1(C(C)=O)CC[C@H]2[C@@H]3CCC4=CC(=O)CC[C@]4(C)[C@H]3CC[C@@]21C
- T/C [2]: 91 % of control
- T/C [3]: 112 % of control
- T/C [4]: 103 % of control
- T/C [5]: 84 % of control

Compound: ClCc1ccc2ccccc2n1
- T/C [11]: 158 % of control
- T/C [8]: 105 % of control
- T/C [9]: 77 % of control

Compound: CCC1(O)CC2CN(CCc3c([nH]c4ccccc34)C(C(=O)OC)(c3cc4c(cc3OC)N(C)C3C(O)(C(=O)NCCSSCCNC(=O)C5(O)C(O)C6(CC)C=CCN7CCC8(c9cc(C%10(C(=O)OC)CC%11CN(CCc%12c%10[nH]c%10ccccc%12%10)CC(O)(CC)C%11)c(OC)cc9N(C)C58)C76)C(O)C5(CC)C=CCN6CCC43C65)C2)C1 (configuration not stated)
- T/C (dose: 0.75 mg/kg/injection, schedule: Q04DX003 (sc), vehicle: saline): 46 % of control
- T/C (dose: 1.5 mg/kg/injection, schedule: Q04DX003 (sc), vehicle: saline): 23 % of control and 46 % of control
- T/C (dose: 1.5 mg/kg/injection, schedule: Q04DX003 (sc), vehicle: suspension in saline): 105 % of control
- T/C (dose: 6.0 mg/kg/injection, schedule: Q04DX003 (sc), vehicle: suspension in saline): 81 % of control
- T/C (dose: 12.0 mg/kg/injection, schedule: Q04DX003 (sc), vehicle: saline): 88 % of control
- T/C (dose: 12.0 mg/kg/injection, schedule: Q04DX003 (sc), vehicle: suspension in saline): 65 % of control

Compound: C=C(C)[C@H]1Cc2c(ccc3c2O[C@@H]2COc4cc(OC)c(OC)cc4[C@@H]2C3=O)O1
- T/C (dose: 2.0 mg/kg/injection, schedule: Q01DX010 (sc), vehicle: saline with Tween-80): 286 % of control
- T/C (dose: 4.0 mg/kg/injection, schedule: Q01DX010 (sc), vehicle: saline with Tween-80): 62 % of control

Compound: Oc1c(Cl)cc(Cl)cc1C1N2CCCCC2C2c3cccn3-c3ccccc3N21 (configuration not stated)
- T/C (dose: 150.0 mg/kg/injection, schedule: Q04DX003 (sc), vehicle: Klucel (hydroxypropylcellulose) (HPC)): 65 % of control
- T/C [2]: 69 % of control
- T/C [4]: 74 % of control

Compound: C=C(C(=O)O)C(N)C(=O)O (configuration not stated)
- T/C (dose: 1200.0 mg/kg/injection, schedule: Q04DX003 (sc), vehicle: suspension in saline): 76 % of control

Compound: Cc1c2cc[n+](C)cc2c(C)c2c1[nH]c1ccc(O)cc12
- T/C (dose: 1.5 mg/kg/injection, schedule: Q04DX003 (sc), vehicle: water): 151 % of control

Compound: COC1=C(OC)C(=O)C(SC/C=C(\C)CCCC(C)CCCC(C)CCCC(C)C)=CC1=O (configuration not stated)
- T/C [9]: 91 % of control
- T/C [10]: 40 % of control
- T/C (dose: 2400.0 mg/kg/injection, schedule: Q04DX003 (sc), vehicle: saline with Tween-80): 55 % of control

Compound: OCC1OC(n2cnc3c2NC=NC[C@H]3O)CC1O (some centres not stated)
- T/C (dose: 1.0 mg/kg/injection, schedule: Q01DX010 (sc), vehicle: water): 122 % of control
- T/C (dose: 2.0 mg/kg/injection, schedule: Q01DX010 (sc), vehicle: water): 68 % of control and 70 % of control and 91 % of control

Compound: CSc1ncnc2c1ncn2C1OC(CO)C(O)C1O (configuration not stated)
- T/C (dose: 75.0 mg/kg/injection, schedule: Q04DX003 (sc), vehicle: saline + alcohol): 166 % of control
- T/C (dose: 150.0 mg/kg/injection, schedule: Q04DX003 (sc), vehicle: saline + alcohol): 22 % of control

Compound: COc1ccc(C(=O)C(CN(C)C)CN(C)C)cc1
- T/C (dose: 12.5 mg/kg/injection, schedule: Q04DX003 (sc), vehicle: saline): 68 % of control
- T/C (dose: 25.0 mg/kg/injection, schedule: Q04DX003 (sc), vehicle: saline): 113 % of control
- T/C (dose: 50.0 mg/kg/injection, schedule: Q04DX003 (sc), vehicle: saline): 64 % of control

Compound: O=C(NP(=O)(N1CC1)N1CC1)c1cc(I)ccc1I
- T/C [6]: 73 % of control
- T/C [7]: 54 % of control

Compound: COc1cc(C(=O)N/N=C/c2cccc([N+](=O)[O-])c2)cc(OC)c1OC
- T/C [11]: 86 % of control

Compound: CN(C)CCN1C(=O)c2cccc3cc([N+](=O)[O-])cc(c23)C1=O
- T/C (dose: 9.0 mg/kg/injection, schedule: Q04DX003 (sc), vehicle: saline with Tween-80): 94 % of control
- T/C (dose: 18.0 mg/kg/injection, schedule: Q04DX003 (sc), vehicle: saline with Tween-80): 108 % of control
- T/C (dose: 36.0 mg/kg/injection, schedule: Q04DX003 (sc), vehicle: saline with Tween-80): 95 % of control

Compound: [N-]=[N+]=CC(=O)CCC(=O)C=[N+]=[N-]
- T/C (dose: 1.5 mg/kg/injection, schedule: Q01DX010 (sc), vehicle: DMSO): 69 % of control
- T/C (dose: 3.0 mg/kg/injection, schedule: Q01DX010 (sc), vehicle: DMSO): 27 % of control

Compound: Cc1cc(NCCCN(C)C)c2ccc3c(ccc4c(NCCCN(C)C)cc(C)nc43)c2n1
- T/C (dose: 9.38 mg/kg/injection, schedule: Q04DX003 (sc), vehicle: saline with Tween-80): 86 % of control
- T/C (dose: 18.75 mg/kg/injection, schedule: Q04DX003 (sc), vehicle: saline with Tween-80): 82 % of control

Compound: O=c1[nH]c(=O)n(C2OC(CO)C(O)C2O)cc1F (configuration not stated)
- T/C (dose: 9.37 mg/kg/injection, schedule: Q04DX003 (sc), vehicle: saline): 77 % of control
- T/C (dose: 18.75 mg/kg/injection, schedule: Q04DX003 (sc), vehicle: saline): 26 % of control
